Laboratory results taken from PMC10331583, “Control of fibrosis with enhanced safety via asymmetric inhibition of prolyl‐tRNA synthetase 1” (EMBO Molecular Medicine, 2023).
Several values for one entry are separate records, joined by “and”; a condition that tells them apart may be missing. Identical values can stand only once. Like-named read-outs stand apart in the source and are kept apart here.

What was measured:
WI‐26 VA4 cells [1] = experiment: Collagen ELISA (secreted pro‐collagen I); settings: for IC50 / activity at 0.01 µM / activity at 300 µM / activity at 0.03 µM / activity at 0.1 µM / activity at 0.3 µM / activity at 1 µM / activity at 3 µM / activity at 10 µM / activity at 30 µM / activity at 100 µM: Homo sapiens
Protocol: WI‐26 VA4 cells were seeded at 3.5 × 10^4 cells/well on 24 well plates. After 24 h, the cells were starved of serum for 6 h. Then, the cells were incubated with the indicated concentrations of compounds in the presence of TGF‐β (2 ng/ml) (R&D systems, 240‐B‐002) for 72 h. The supernatant of the cells was collected and centrifuged at 500 g for 5 min to remove cell debris. Then, the level of pro‐collagen I in the supernatant was determined using Human Pro‐collagen I alpha 1 DuoSet ELISA (R&D systems, DY6220‐05) and DuoSet ELISA Ancillary Reagent Kit 2 (R&D systems, DY008) following the manufacturer's instructions.

WI‐26 VA4 cells [2] = experiment: Puromycin incorporation assay; type: cell-based, human
Summary of the method: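 WI‐26 VA4 cell lysates prepared in carbonate-bicarbonate buffer with protease inhibitor; 400 ng protein coated on ELISA plates 18 h at 4°C. Puromycin incorporated into proteins detected by antibody ELISA, absorbance 450 nm with 620 nm reference; outlier values excluded based on replicates and adjacent concentrations.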

[3] = log(inhibitor) vs. response, variable slope (four parameters)

With `O[C@H]1CCCN[C@@H]1CCCn1cnc2c(Cl)c(Cl)ccc21` [DWN12088] the “Collagen, % of control (single replicates per experiment)” value (WI‐26 VA4 cells [1]; 10 nM, 0.01 µM) was 101.76 % of control, the “Collagen, % of control (single replicates per experiment)” value (WI‐26 VA4 cells [1]; 30 nM, 0.03 µM) was 120.03 % of control and 114.52 % of control and 91.73 % of control and 89.16 % of control and 97.48 % of control and 99.13 % of control and 133.18 % of control and 134.10 % of control and the “Collagen, % of control (single replicates per experiment)” value (WI‐26 VA4 cells [1]; 100 nM, 0.1 µM) was 111.05 % of control and 113.92 % of control and 88.23 % of control and 93.03 % of control and 102.46 % of control and 102.99 % of control and 133.45 % of control and 119.32 % of control. For the same compound, the “Collagen, % of control (single replicates per experiment)” value (WI‐26 VA4 cells [1]; 300 nM, 0.3 µM) was 97.76 % of control and 92.78 % of control and 92.20 % of control and 87.32 % of control and 95.43 % of control and 105.10 % of control and 105.64 % of control and 109.03 % of control, the “Collagen, % of control (single replicates per experiment)” value (WI‐26 VA4 cells [1]; 1000 nM, 1 µM) was 75.49 % of control and 75.29 % of control and 77.13 % of control and 68.65 % of control and 66.58 % of control and 66.40 % of control and 103.27 % of control and 103.19 % of control and the “Collagen, % of control (single replicates per experiment)” value (WI‐26 VA4 cells [1]; 3000 nM, 3 µM) was 24.90 % of control and 21.92 % of control. For the same compound, the “TI (CC50/IC50 for collagen level)” value (WI‐26 VA4 cells [1]; Fig 1C) was 10.29, the “CC50/collagen IC50” value (WI‐26 VA4 cells [1]; Fig 5E) was 10.07 and the IC50 (WI‐26 VA4 cells [1]; WI26VA4, 72 h, read-out: IC50 for collagen level) was 2020 nM. It also gave an IC50 (WI‐26 VA4 cells [1]; WI26VA4, read-out: Collagen IC50 (best-fit value)) of 2020 nM, an activity at 0.01 µM (WI‐26 VA4 cells [1]; WI26VA4, read-out: Collagen, % of control (single replicates per experiment), 10 nM) of 101% and an activity at 300 µM (WI‐26 VA4 cells [1]; WI26VA4, read-out: Collagen, % of control (single replicates per experiment), 300000 nM) of 3.81%. For the same compound, the activity at 0.01 µM (WI‐26 VA4 cells [1]; WI26VA4, read-out: Collagen, % of control, average, 10 nM, average) was 101%, the activity at 0.03 µM (WI‐26 VA4 cells [1]; WI26VA4, read-out: Collagen, % of control, average, 30 nM, average) was 103% and the activity at 0.1 µM (WI‐26 VA4 cells [1]; WI26VA4, read-out: Collagen, % of control, average, 100 nM, average) was 105%. The activity at 0.3 µM (WI‐26 VA4 cells [1]; WI26VA4, read-out: Collagen, % of control, average, 300 nM, average) was 96.4%, the activity at 1 µM (WI‐26 VA4 cells [1]; WI26VA4, read-out: Collagen, % of control, average, 1000 nM, average) was 78.8% and the activity at 3 µM (WI‐26 VA4 cells [1]; WI26VA4, read-out: Collagen, % of control, average, 3000 nM, average) was 37.7%. For the same compound, the activity at 10 µM (WI‐26 VA4 cells [1]; WI26VA4, read-out: Collagen, % of control, average, 10000 nM, average) was 15%, the activity at 30 µM (WI‐26 VA4 cells [1]; WI26VA4, read-out: Collagen, % of control, average, 30000 nM, average) was 5.52% and the activity at 100 µM (WI‐26 VA4 cells [1]; WI26VA4, read-out: Collagen, % of control, average, 100000 nM, average) was 4.05%. It also gave an activity at 300 µM (WI‐26 VA4 cells [1]; WI26VA4, read-out: Collagen, % of control, average, 300000 nM, average) of 4.51%, an activity at 0.03 µM (WI‐26 VA4 cells [1]; WI26VA4, read-out: Efficacy, % of control, average, 30 nM) of 102% and an activity at 0.1 µM (WI‐26 VA4 cells [1]; WI26VA4, read-out: Efficacy, % of control, average, 100 nM) of 99.4%. The activity at 0.3 µM (WI‐26 VA4 cells [1]; WI26VA4, read-out: Efficacy, % of control, average, 300 nM) was 107%, the activity at 1 µM (WI‐26 VA4 cells [1]; WI26VA4, read-out: Efficacy, % of control, average, 1000 nM) was 82.3% and the activity at 3 µM (WI‐26 VA4 cells [1]; WI26VA4, read-out: Efficacy, % of control, average, 3000 nM) was 35.4%. It also gave an activity at 10 µM (WI‐26 VA4 cells [1]; WI26VA4, read-out: Efficacy, % of control, average, 10000 nM) of 11.9%, an activity at 30 µM (WI‐26 VA4 cells [1]; WI26VA4, read-out: Efficacy, % of control, average, 30000 nM) of 3.71% and an activity at 100 µM (WI‐26 VA4 cells [1]; WI26VA4, read-out: Efficacy, % of control, average, 100000 nM) of 2.52%. It also gave an activity at 0.03 µM (WI‐26 VA4 cells [1]; WI26VA4, read-out: Efficacy, % of control, single replicate, 30 nM) of 113%, an activity at 0.1 µM (WI‐26 VA4 cells [1]; WI26VA4, read-out: Efficacy, % of control, single replicate, 100 nM) of 108% and an activity at 0.3 µM (WI‐26 VA4 cells [1]; WI26VA4, read-out: Efficacy, % of control, single replicate, 300 nM) of 114%. It also gave an activity at 3 µM (WI‐26 VA4 cells [1]; WI26VA4, read-out: Efficacy, % of control, single replicate, 3000 nM) of 39%, an activity at 10 µM (WI‐26 VA4 cells [1]; WI26VA4, read-out: Efficacy, % of control, single replicate, 10000 nM) of 10.1% and an activity at 30 µM (WI‐26 VA4 cells [1]; WI26VA4, read-out: Efficacy, % of control, single replicate, 30000 nM) of 3.03%. The IC50 (WI‐26 VA4 cells [1]; WI26VA4, read-out: IC50 for collagen level) was 2000 nM, the “Collagen HillSlope (best-fit value)” value (WI‐26 VA4 cells [1]; [3]) was -1.329 and the “Collagen LogIC50 (best-fit value)” value (WI‐26 VA4 cells [1]; log(inhibitor) vs. response, variable slope (four parameters), concentration in nM) was 3.306. The “Relative (CC50)/(collagen IC50)” value (WI‐26 VA4 cells [1]; relative to HF, Fig 5E) was 3.01, the “Puromycin, % of control, single replicate” value (“Puromycin, % of control” below) (WI‐26 VA4 cells [2]; 30000 nM, 30 µM) was 67.68 % of control (2×) and 67.72 % of control (2×) and 65.74 % of control (2×) and 95.99 % of control and 94.34 % of control and 94.68 % of control and the “Puromycin, % of control” value (WI‐26 VA4 cells [2]; 300000 nM, 300 µM) was 0.28 % of control (2×) and -0.36 % of control (2×) and 0.08 % of control (2×) and 0.75 % of control and 0.84 % of control and 0.22 % of control. For the same compound, the “Puromycin, % of control” value (WI‐26 VA4 cells [2]; 1000000 nM, 1000 µM) was -0.0139 % of control (2×) and -0.24 % of control (2×) and 0.08 % of control (2×) and 0.39 % of control (2×) and 0.49 % of control, the activity at 0.3 µM (WI‐26 VA4 cells [2]; Homo sapiens, WI26VA4, read-out: Puromycin, % of control, average, 300 nM) was 104% and the activity at 1 µM (WI‐26 VA4 cells [2]; Homo sapiens, WI26VA4, read-out: Puromycin, % of control, average, 1000 nM) was 109%. It also gave an activity at 3 µM (WI‐26 VA4 cells [2]; Homo sapiens, WI26VA4, read-out: Puromycin, % of control, average, 3000 nM) of 103%, an activity at 30 µM (WI‐26 VA4 cells [2]; Homo sapiens, WI26VA4, read-out: Puromycin, % of control, average, 30000 nM) of 76.4% and an activity at 100 µM (WI‐26 VA4 cells [2]; Homo sapiens, WI26VA4, read-out: Puromycin, % of control, average, 100000 nM) of 29.7%. For the same compound, the activity at 300 µM (WI‐26 VA4 cells [2]; Homo sapiens, WI26VA4, read-out: Puromycin, % of control, average, 300000 nM) was 0.2%, the activity at 1000 µM (WI‐26 VA4 cells [2]; Homo sapiens, WI26VA4, read-out: Puromycin, % of control, average, 1000000 nM) was 0.1% and the activity at 0.3 µM (WI‐26 VA4 cells [2]; Homo sapiens, WI26VA4, read-out: Puromycin, % of control, single replicate, 300 nM) was 107%. It also gave an activity at 1 µM (WI‐26 VA4 cells [2]; Homo sapiens, WI26VA4, read-out: Puromycin, % of control, single replicate, 1000 nM) of 107%, an activity at 3 µM (WI‐26 VA4 cells [2]; Homo sapiens, WI26VA4, read-out: Puromycin, % of control, single replicate, 3000 nM) of 99.5% and an activity at 10 µM (WI‐26 VA4 cells [2]; Homo sapiens, WI26VA4, read-out: Puromycin, % of control, single replicate, 10000 nM) of 98.3%. For the same compound, the activity at 100 µM (WI‐26 VA4 cells [2]; Homo sapiens, WI26VA4, read-out: Puromycin, % of control, single replicate, 100000 nM) was 27.4%, the IC50 (WI‐26 VA4 cells [2]; Homo sapiens, WI26VA4, read-out: Puromycin, IC50 (best-fit value)) was 56800 nM and the “Puromycin, HillSlope (best-fit value)” value (WI‐26 VA4 cells [2]; [3]) was -1.616.
